Where two headings read alike, the source gives them in different places.
Tested on: Penicillium funiculosum
Test: MIC and synergy of MIT/BIT (1:1) and BNPD in Sabouraud maltose broth, 72 h
Format: cell-based
Settings: for growth of the microorganism: MIT/BIT 0 ppm; for MIC: Talaromyces funiculosus
Experimental: In all the examples in which an active substance mixture of MIT and BIT as well as additionally a further active biocidal substance was used, the weight ratio of MIT to BIT was 1:1.
The synergy index is calculated according to the method of F. C. Kull et al., Applied Microbiology, Vol. 9 (1961), p. 538. Here the synergy index is calculated using the following formula:
Synergy index SI=Qa/QA+Qb/QB.
The synergy of an active substance that contains 2-bromo-2-nitropropane-1,3-diol (BNPD) in addition to MIT and BIT, against the microorganism Penicillium funiculosum is shown as in Example 1.
The test batches contained a Sabouraud maltose broth as a nutrient medium. The spore concentration was 10^6 per mL. The incubation time was 72 h at 25° C. Each sample was incubated on an incubation shaker at 120 rpm.

[1] = MIT/BIT 0.0% by wt, BNPD 100.0% by wt, 72 h

MIC (MIT/BIT 0.0% by wt, BNPD 100.0% by wt, 72 h, read-out: MIC at BNPD concentration Qb): 600 µg/mL
MIC (MIT/BIT 0.0% by wt, BNPD 100.0% by wt, 72 h, read-out: MIC at Total concentration MIT/BIT + BNPD): 600 µg/mL
MIC (used alone, 72 h at 25° C., read-out: MIC value): 600 µg/mL
Structure (SMILES): O=[N+]([O-])C(Br)(CO)CO [BNPD, 2-bromo-2-nitropropane-1,3-diol]
Qb/QB [1]: 1.00
Synergy index Qa/QA + Qb/QB [1]: 1.00
growth of the microorganism (BNPD 25 ppm, 72 h): +
growth of the microorganism (BNPD 50 ppm, 72 h): +
growth of the microorganism (BNPD 100 ppm, 72 h): +
growth of the microorganism (BNPD 150 ppm, 72 h): +
growth of the microorganism (BNPD 200 ppm, 72 h): +
growth of the microorganism (BNPD 300 ppm, 72 h): +
growth of the microorganism (BNPD 400 ppm, 72 h): +
growth of the microorganism (BNPD 600 ppm, 72 h): −
growth of the microorganism (BNPD 800 ppm, 72 h): −
growth of the microorganism (BNPD 1000 ppm, 72 h): −

— patent publication US6361788B1, “Synergistic biocide composition” (Thor Chemie GmbH, priority 1997, dated 2002)
